Target: T1, NKCC1 (Homo sapiens, UniProt P55011)
T1 construct: endogenous in cells; host or cells: native HEK293 cells
T1 sequence (P55011 1-1212): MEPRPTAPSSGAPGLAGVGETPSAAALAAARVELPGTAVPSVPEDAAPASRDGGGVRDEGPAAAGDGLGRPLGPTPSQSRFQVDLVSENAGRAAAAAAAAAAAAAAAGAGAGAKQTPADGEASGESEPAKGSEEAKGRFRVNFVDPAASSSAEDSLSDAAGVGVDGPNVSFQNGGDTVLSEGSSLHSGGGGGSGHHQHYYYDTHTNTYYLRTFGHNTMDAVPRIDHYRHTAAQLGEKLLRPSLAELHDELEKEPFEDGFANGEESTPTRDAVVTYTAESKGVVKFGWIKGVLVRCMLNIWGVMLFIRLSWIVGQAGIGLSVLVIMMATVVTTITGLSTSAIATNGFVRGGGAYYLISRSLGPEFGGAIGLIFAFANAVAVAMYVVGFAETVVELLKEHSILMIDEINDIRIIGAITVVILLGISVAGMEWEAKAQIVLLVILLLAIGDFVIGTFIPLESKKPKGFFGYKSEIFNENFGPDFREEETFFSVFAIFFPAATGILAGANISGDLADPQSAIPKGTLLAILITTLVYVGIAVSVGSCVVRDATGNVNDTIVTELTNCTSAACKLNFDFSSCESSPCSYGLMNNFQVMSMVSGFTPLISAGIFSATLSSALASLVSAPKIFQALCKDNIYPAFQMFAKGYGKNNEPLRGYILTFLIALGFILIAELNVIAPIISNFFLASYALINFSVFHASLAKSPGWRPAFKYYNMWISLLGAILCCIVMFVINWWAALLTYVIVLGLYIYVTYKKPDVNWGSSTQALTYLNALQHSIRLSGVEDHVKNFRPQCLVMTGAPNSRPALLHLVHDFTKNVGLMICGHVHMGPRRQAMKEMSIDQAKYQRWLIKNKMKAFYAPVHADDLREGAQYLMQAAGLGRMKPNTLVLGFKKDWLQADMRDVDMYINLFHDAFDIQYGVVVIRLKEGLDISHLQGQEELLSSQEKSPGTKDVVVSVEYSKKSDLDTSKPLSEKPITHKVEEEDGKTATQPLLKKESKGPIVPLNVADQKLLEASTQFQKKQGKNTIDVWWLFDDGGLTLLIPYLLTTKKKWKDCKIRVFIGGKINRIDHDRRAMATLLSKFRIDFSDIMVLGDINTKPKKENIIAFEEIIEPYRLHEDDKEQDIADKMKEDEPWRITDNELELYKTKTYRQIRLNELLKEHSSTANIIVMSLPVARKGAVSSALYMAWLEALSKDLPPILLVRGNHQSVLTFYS
Experiment: NKCC1-mediated K+ influx (83Rb tracer uptake) in native HEK293 cells, hypertonic saline, 100 μM ouabain
Assay type: cell-based
Conditions: HEK293, no drug = 1000, 20 μM bumetanide = 0; for inhibition at 2 µM: read-out: NKCC1 mediated flux inhibition at 2 μM (%); for inhibition at 20 µM: read-out: NKCC1 mediated flux inhibition at 20 μM (%)
Summary of the method: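 Native cells in slightly hypertonic saline with 100 μM ouabain; 15 min preincubation then 15 min 83Rb uptake (0.25 μCi/mL), scintillation counting normalized to protein. Compounds at 2 μM and 20 μM; flux scaled 1000 (no drug) to 0 (20 μM bumetanide), triplicate dishes.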

Compound	inhibition at 2 µM [%]	inhibition at 20 µM [%]
CCCCNc1cc(C(=O)O)cc(S(=N)(=O)N2CCC(c3ccccc3)CC2)c1Oc1ccccc1 (stereo not drawn) [Compound 66, 3-(butylamino)-4-phenoxy-5-[(4-phenyl-1-piperidyl)sulfonimidoyl]benzoic acid]	30 to 50	≥ 75
CCCCNc1cc(C(=O)O)cc(S(=N)(=O)NCc2nccs2)c1Oc1ccccc1 (stereo not drawn) [Compound 85, 3-(butylamino)-4-phenoxy-5-[(thiazol-2-ylmethylamino)sulfonimidoyl]benzoic acid]	30 to 50	≥ 75
CCCCNc1cc(C(=O)O)cc(S(=N)(=O)Nc2cccc(Cl)c2)c1Oc1ccccc1 (stereo not drawn) [Compound 70, 3-(butylamino)-5-[(3-chloroanilino)sulfonimidoyl]-4-phenoxy-benzoic acid]	≥ 75	≥ 75
CCCCNc1cc(C(=O)OC)cc(S(=N)(=O)Nc2nccn2C)c1Oc1ccccc1 (stereo not drawn) [Compound 40, methyl 3-(butylamino)-5-[[(1-methylimidazol-2-yl)amino]sulfonimidoyl]-4-phenoxy-benzoate]	–	30 to 50
CCCCNc1cc(C(=O)O)cc(S(=N)(=O)NCCc2cccnc2)c1Oc1ccccc1 (stereo not drawn) [Compound 84, 3-(butylamino)-4-phenoxy-5-[[2-(3-pyridyl)ethylamino]sulfonimidoyl]benzoic acid]	10 to 30	≥ 75
CCCCNc1cc(C(=O)O)cc(S(=N)(=O)NCCc2ccccc2)c1Oc1ccccc1 (stereo not drawn) [Compound 81, 3-(butylamino)-4-phenoxy-5-[(2-phenylethylamino)sulfonimidoyl]benzoic acid]	30 to 50	≥ 75
CCCCNc1cc(C(=O)O)cc(S(=N)(=O)NCCc2nccs2)c1Oc1ccccc1 (stereo not drawn) [Compound 86, 3-(butylamino)-4-phenoxy-5-[(2-thiazol-2-ylethylamino)sulfonimidoyl]benzoic acid]	50 to 75	≥ 75
CCCCNc1cc(C(=O)O)cc(S(=N)(=O)Nc2ccccn2)c1Oc1ccccc1 (stereo not drawn) [Compound 89, 3-(butylamino)-4-phenoxy-5-[(2-pyridylamino)sulfonimidoyl]benzoic acid]	30 to 50	≥ 75
CCCCNc1cc(C(=O)OC)cc(S(=N)(=O)Nc2ccccn2)c1Oc1ccccc1 (stereo not drawn) [Compound 41, methyl 3-(butylamino)-4-phenoxy-5-[(2-pyridylamino)sulfonimidoyl]benzoate]	–	30 to 50
CCCCNc1cc(C(=O)OC)cc(S(=N)(=O)NC2CCOCC2)c1Oc1ccccc1 (stereo not drawn) [Compound 29, methyl 3-(butylamino)-4-phenoxy-5-[(tetrahydropyran-4-ylamino)sulfonimidoyl]benzoate]	–	10 to 30
CCCCNc1cc(C(=O)OC)cc(S(=N)(=O)NC23CC(C2)C3)c1Oc1ccccc1 (stereo not drawn) [Compound 47, methyl 3-[(1-bicyclo[1.1.1]pentanylamino)sulfonimidoyl]-5-(butylamino)-4-phenoxy-benzoate]	30 to 50	30 to 50
CCCCNc1cc(C(=O)O)cc(S(=N)(=O)Nc2cnccn2)c1Oc1ccccc1 (stereo not drawn) [Compound 73, 3-(butylamino)-4-phenoxy-5-[(pyrazin-2-ylamino)sulfonimidoyl]benzoic acid]	≥ 75	≥ 75
CCCCNc1cc(C(=O)O)cc(S(=N)(=O)NCc2cccc(Cl)c2)c1Oc1ccccc1 (stereo not drawn) [Compound 71, 3-(butylamino)-5-[[(3-chlorophenyl)methylamino]sulfonimidoyl]-4-phenoxy-benzoic acid]	≥ 75	≥ 75
CCCCNc1cc(C(=O)OC)cc(S(=N)(=O)Nc2ccnnc2)c1Oc1ccccc1 (stereo not drawn) [Compound 45, methyl 3-(butylamino)-4-phenoxy-5-[(pyridazin-4-ylamino)sulfonimidoyl]benzoate]	30 to 50	30 to 50
CCCCNc1cc(C(=O)OC)cc(S(=N)(=O)N2CCOCC2)c1Oc1ccccc1 (stereo not drawn) [Compound 6, methyl 3-(butylamino)-5-(morpholinosulfonimidoyl)-4-phenoxy-benzoate]	10 to 30	30 to 50
CCCCNc1cc(C(=O)O)cc(S(=N)(=O)NCc2cccnc2)c1Oc1ccccc1 (stereo not drawn) [Compound 83, 3-(butylamino)-4-phenoxy-5-[(3-pyridylmethylamino)sulfonimidoyl]benzoic acid]	30 to 50	≥ 75

Now from value to compound:

inhibition at 2 µM [%]	inhibition at 20 µM [%]	Compound
30 to 50	≥ 75	CCCCN=S(C)(=O)c1cc(C(=O)O)cc(NCCCC)c1Oc1ccccc1 (stereo not drawn) [Compound 131, 3-(butylamino)-5-(N-butyl-S-methyl-sulfonimidoyl)-4-phenoxy-benzoic acid]
30 to 50	10 to 30	CCCCNc1cc(C(=O)NOC)cc(S(=N)(=O)N2Cc3ccccc3C2)c1Oc1ccccc1 (stereo not drawn) [Compound 113, 3-(butylamino)-5-(isoindolin-2-ylsulfonimidoyl)-N-methoxy-4-phenoxy-benzamide]
–	10 to 30	CCCCNc1cc(C(=O)NC)cc(S(=N)(=O)NCc2ccccc2)c1Oc1ccccc1 (stereo not drawn) [Compound 102, 3-[(benzylamino)sulfonimidoyl]-5-(butylamino)-N-methyl-4-phenoxy-benzamide]
30 to 50	≥ 75	CCCCNc1cc(C(=O)O)cc(S(=N)(=O)Nc2ccncc2)c1Oc1ccccc1 (stereo not drawn) [Compound 91, 3-(butylamino)-4-phenoxy-5-[(4-pyridylamino)sulfonimidoyl]benzoic acid]
30 to 50	30 to 50	CCCCNc1cc(C(=O)NOC)cc(S(=N)(=O)NC2CCOCC2)c1Oc1ccccc1 (stereo not drawn) [Compound 121, 3-(butylamino)-N-methoxy-4-phenoxy-5-[(tetrahydropyran-4-ylamino)sulfonimidoyl]benzamide]
–	10 to 30	CCCCNc1cc(C(=O)NCCOC)cc(S(=N)(=O)Nc2ccccc2)c1Oc1ccccc1 (stereo not drawn) [Compound 109, 3-(anilinosulfonimidoyl)-5-(butylamino)-N-(2-methoxyethyl)-4-phenoxy-benzamide]
30 to 50	10 to 30	CCCCNc1cc(C(=O)NCCOC)cc(S(=N)(=O)N2Cc3ccccc3C2)c1Oc1ccccc1 (stereo not drawn) [Compound 114, 3-(butylamino)-5-(isoindolin-2-ylsulfonimidoyl)-N-(2-methoxyethyl)-4-phenoxy-benzamide]
–	10 to 30	CCCCNc1cc(C(=O)NCC(F)F)cc(S(=N)(=O)Nc2ccccc2)c1Oc1ccccc1 (stereo not drawn) [Compound 110, 3-(anilinosulfonimidoyl)-5-(butylamino)-N-(2,2-difluoroethyl)-4-phenoxy-benzamide]
30 to 50	≥ 75	CCCCNc1cc(-c2nnn[nH]2)cc(S(=O)(=O)Nc2ccccc2)c1Oc1ccccc1 [Compound 126, 3-(butylamino)-2-phenoxy-N-phenyl-5-(1H-tetrazol-5-yl)benzenesulfonamide]
10 to 30	–	CCCCNc1cc(C(=O)NC)cc(S(=N)(=O)N2Cc3ccccc3C2)c1Oc1ccccc1 (stereo not drawn) [Compound 112, 3-(butylamino)-5-(isoindolin-2-ylsulfonimidoyl)-N-methyl-4-phenoxy-benzamide]
30 to 50	30 to 50	CCCCNc1cc(C(=O)O)cc(S(=N)(=O)NC23CC(C2)C3)c1Oc1ccccc1 (stereo not drawn) [Compound 95, 3-[(1-bicyclo[1.1.1]pentanylamino)sulfonimidoyl]-5-(butylamino)-4-phenoxy-benzoic acid]
30 to 50	10 to 30	CCCCNc1cc(C(=O)OC)cc(S(=O)(=Nc2ccccc2)N2CCCCCC2)c1Oc1ccccc1 (stereo not drawn) [Compound 99, methyl 3-[S-(azepan-1-yl)-N-phenyl-sulfonimidoyl]-5-(butylamino)-4-phenoxy-benzoate]
50 to 75	≥ 75	CCCCNc1cc(C(=O)O)cc(S(=N)(=O)NCCCC)c1Oc1ccccc1 (stereo not drawn) [Compound 94, 3-(butylamino)-5-(butylaminosulfonimidoyl)-4-phenoxy-benzoic acid]

From patent publication US20260374782A1, “NEW COMPOUNDS, PROCESSES FOR PREPARING THE SAME AND THEIR USE AS DRUGS” (B&A ONCOMEDICAL, priority 2022, published 2026)
